# Where “and” joins values, the source holds several entries; their conditions need not be identical. Equal values may be shown once. Read-outs that look alike come from different tables or passages of the source.
# Legend:
# [1] = target: T1, Recombinant human matriptase (Homo sapiens, UniProt Q9Y5Y6); experiment: Protease selectivity, Ki on recombinant protease; format: biochemical; details: single experiments N1-N3; Figure 1D; read-out: Individual Ki, Matriptase
# T1 construct: made in house
# T1 sequence (Q9Y5Y6 1-855): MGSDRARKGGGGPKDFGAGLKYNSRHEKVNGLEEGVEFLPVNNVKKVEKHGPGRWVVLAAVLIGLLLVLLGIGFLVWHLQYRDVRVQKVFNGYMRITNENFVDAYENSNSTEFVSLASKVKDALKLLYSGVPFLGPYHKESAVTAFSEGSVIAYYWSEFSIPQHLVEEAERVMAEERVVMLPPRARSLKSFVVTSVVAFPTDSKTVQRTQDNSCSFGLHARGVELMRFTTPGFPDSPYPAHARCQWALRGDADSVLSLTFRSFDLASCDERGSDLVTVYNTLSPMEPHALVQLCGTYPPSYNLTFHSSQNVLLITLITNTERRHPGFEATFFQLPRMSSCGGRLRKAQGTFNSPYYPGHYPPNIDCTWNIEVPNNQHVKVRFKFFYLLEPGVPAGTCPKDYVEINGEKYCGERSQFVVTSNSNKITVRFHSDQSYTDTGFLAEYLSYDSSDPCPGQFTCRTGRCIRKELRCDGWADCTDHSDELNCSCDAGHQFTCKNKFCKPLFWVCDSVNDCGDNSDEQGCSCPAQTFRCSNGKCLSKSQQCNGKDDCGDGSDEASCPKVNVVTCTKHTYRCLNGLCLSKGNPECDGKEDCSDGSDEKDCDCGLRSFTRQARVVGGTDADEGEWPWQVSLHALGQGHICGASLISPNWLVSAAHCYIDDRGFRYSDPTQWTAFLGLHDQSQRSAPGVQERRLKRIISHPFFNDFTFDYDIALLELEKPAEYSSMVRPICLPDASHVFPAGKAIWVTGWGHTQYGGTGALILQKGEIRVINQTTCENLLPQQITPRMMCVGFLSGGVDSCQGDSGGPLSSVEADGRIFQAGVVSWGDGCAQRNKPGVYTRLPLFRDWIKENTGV
# [2] = target: T2, Recombinant human hepsin (Homo sapiens, UniProt P05981); experiment: Protease selectivity, Ki on recombinant protease; format: biochemical; details: single experiments N1-N3; Figure 1D; read-out: Individual Ki, Hepsin
# T2 construct: made in house
# [3] = target: T3, human thrombin (Homo sapiens, UniProt P00734); experiment: Protease selectivity, Ki on protease; format: biochemical; details: single experiments N1-N3; Figure 1D; read-out: Individual Ki, Thrombin
# T3 construct: purchased MilliporeSigma
# [4] = target: T4, Recombinant human DESC1 (Homo sapiens, UniProt Q9UL52); experiment: Protease selectivity, Ki on recombinant protease; format: biochemical; details: single experiments N1-N3; Figure 1D; read-out: Individual Ki, Desc1
# T4 construct: made in house
# T4 sequence (Q9UL52 1-423): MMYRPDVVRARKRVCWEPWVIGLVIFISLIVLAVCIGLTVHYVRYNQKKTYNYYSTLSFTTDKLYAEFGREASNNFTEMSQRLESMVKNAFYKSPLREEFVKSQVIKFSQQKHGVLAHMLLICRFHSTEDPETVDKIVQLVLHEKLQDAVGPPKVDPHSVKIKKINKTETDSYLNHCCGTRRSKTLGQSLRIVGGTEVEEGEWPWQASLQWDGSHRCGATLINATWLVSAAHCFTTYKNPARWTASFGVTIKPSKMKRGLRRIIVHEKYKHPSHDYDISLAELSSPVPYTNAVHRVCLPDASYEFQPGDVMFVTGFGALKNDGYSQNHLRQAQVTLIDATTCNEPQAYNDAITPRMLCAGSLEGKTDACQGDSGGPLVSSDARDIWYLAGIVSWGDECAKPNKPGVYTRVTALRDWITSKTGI
# [5] = target: T5, human cathepsin L (Homo sapiens, UniProt P07711); experiment: Protease selectivity, Ki on protease; format: biochemical; details: single experiments N1-N4; Figure 1D; read-out: Individual Ki, Cathepsin L
# T5 construct: purchased Bio-Techne
# [6] = target: T6, Recombinant human furin (Homo sapiens, UniProt P09958); experiment: Protease selectivity, Ki on recombinant protease; format: biochemical; details: single experiments N1-N3; Figure 1D; read-out: Individual Ki, Furin
# T6 construct: purchased Bio-Techne
# [7] = tested on: SARS-CoV-2 (USA-WA1/2020, lineage A); format: in vivo, K18-hACE2 mice; details: Figure S8 C, tissue plaque assay, individual animals
# [8] = tested on: SARS-CoV-2 (USA-WA1/2020, lineage A); experiment: K18-hACE2 mouse model of SARS-CoV-2, H&E histopathology of lung and brain; details: 8-day regimen
# Procedure: For histological examination, mouse lungs and brains were collected directly after euthanasia and placed in 10% formalin for more than 72 h, after which tissues were embedded in paraffin. Tissue sections (4 μm) were analysed after staining with H&E and scored blinded by an anatomic pathologist. For lung, scores were applied based on the percentage of each tissue type (alveolus, vessels and so on) affected using the following criteria: (0) normal; (1) less than 10% affected; (2) 10–25% affected; (3) 26–50% affected; and (4) more than 50% affected[64]. Assessment of lung pathology in K18-hACE2 mice infected with the SARS-CoV-2 B.1.617.2 (Delta) VOC after single-dose treatment was performed on IHC sections counterstained with haematoxylin. For brains, histological scoring was assessed for perivascular inflammation using the most severely affected vessel and the following criteria: (0) no perivascular inflammation; (1) incomplete cuff one cell layer thick; (2) complete cuff one cell layer thick; (3) complete cuff two to three cells thick; and (4) complete cuff four or more cells thick. Necrotic cells in the neuroparenchyma were assessed per 0.237 mm^2 field using the most severely affected area and the following criteria: (0) no necrotic cells; (1) rare individual necrotic cells; (2) fewer than 10 necrotic cells; (3) 11 to 25 necrotic cells; (4) 26 to 50 necrotic cells; and (5) greater than 50 cells.
# [9] = tested on: SARS-CoV-2 (VIDO); format: cell-based; design: plaque assay titre, Figure 2c: unit not given beside the values; details: for reduction of viral titre (plaque assay): supernatant of infected Calu-3 cells, vs DMSO-treated infected control; for plaque assay titre, Figure 2c: replicate columns
# [10] = target: human TMPRSS2 (Homo sapiens, UniProt O15393); experiment: cell-based; details: cells treated with up to 10 μM
# [11] = tested on: SARS-CoV-2 (USA-WA1/2020, lineage A); experiment: K18-hACE2 mouse model of SARS-CoV-2, IHC of nucleocapsid with digital image analysis; format: in vivo, K18-hACE2 mice; details: individual mice, 8-day regimen, tissue at death or end-point
# Procedure: To detect viral antigen, sections were labelled with anti-SARS-CoV-2 nucleocapsid protein rabbit IgG monoclonal antibody (GeneTex; GTX635679) at a 1:5,000 dilution and processed using a Leica Bond Max automated IHC stainer. Leica Bond Polymer Refine Detection (Leica; DS9800) with DAB was used as the chromogen. Image acquisition was performed using a Roche Ventana DP200 slide scanner. Digital image analysis was performed using QuPath software[65],[66] v.0.2.3. Tissues were annotated to include all available lung tissue or all brain tissue excluding cerebellum, as cerebellar tissue was not available for all mice. Following annotation, automated detection was performed using automated SLIC superpixel segmentation with a DAB mean detection threshold of 0.18892.
# [12] = tested on: SARS-CoV-2 (USA-WA1/2020, lineage A); design: species or system K18-hACE2 mice; details: mouse, in vivo
# [13] = tested on: SARS-CoV-2 lineage B strain (VIDO); experiment: microbe, parasite or virus in culture; format: cell-based
# [14] = tested on: SARS-CoV-2 (VIDO); experiment: microbe, parasite or virus in culture; format: cell-based; details: Severe acute respiratory syndrome coronavirus 2; colonoids pretreated 3 h with 100 nM, infected 3 days, vs DMSO-treated; read-out: inhibition of SARS-CoV-2 infection in colonoids
# [15] = tested on: Vero E6 cells; experiment: Cytotoxicity assay (Cell Titer-Glo 2.0) in Vero E6 cells; format: cell-based; details: Triton X-100 0.01% toxicity control, 24 h; single experiments N1-N4
# Procedure: Calu-3 and Vero E6 cells (2500 or 10,000 cells for samples, 80–20,000 cells for standard curve) were seeded in 96-well plates. Following a 24-h incubation at 37 °C, 5% CO2, cells were washed with D-PBS and compounds added (10 µM) for an additional 24-h incubation. Cellular viability was assessed using Cell Titer-Glo 2.0 Cell Viability Assay (Promega) according to the manufacturer’s instructions. The number of viable cells was extrapolated using the standard curve. Cellular viability in Vero E6 cells was expressed relative (%) to vehicle-treated cells. Data are from four independent experiments (mean ± s.d.).
# [16] = individual mice, tissue at death or end-point
# T5 sequence (P07711 114-333): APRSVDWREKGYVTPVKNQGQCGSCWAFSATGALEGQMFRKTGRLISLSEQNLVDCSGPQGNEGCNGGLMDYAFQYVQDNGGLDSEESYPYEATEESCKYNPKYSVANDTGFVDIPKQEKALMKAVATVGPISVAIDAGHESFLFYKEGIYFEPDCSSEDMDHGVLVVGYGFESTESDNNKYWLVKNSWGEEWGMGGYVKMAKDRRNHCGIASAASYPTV
# T6 sequence (P09958 108-794): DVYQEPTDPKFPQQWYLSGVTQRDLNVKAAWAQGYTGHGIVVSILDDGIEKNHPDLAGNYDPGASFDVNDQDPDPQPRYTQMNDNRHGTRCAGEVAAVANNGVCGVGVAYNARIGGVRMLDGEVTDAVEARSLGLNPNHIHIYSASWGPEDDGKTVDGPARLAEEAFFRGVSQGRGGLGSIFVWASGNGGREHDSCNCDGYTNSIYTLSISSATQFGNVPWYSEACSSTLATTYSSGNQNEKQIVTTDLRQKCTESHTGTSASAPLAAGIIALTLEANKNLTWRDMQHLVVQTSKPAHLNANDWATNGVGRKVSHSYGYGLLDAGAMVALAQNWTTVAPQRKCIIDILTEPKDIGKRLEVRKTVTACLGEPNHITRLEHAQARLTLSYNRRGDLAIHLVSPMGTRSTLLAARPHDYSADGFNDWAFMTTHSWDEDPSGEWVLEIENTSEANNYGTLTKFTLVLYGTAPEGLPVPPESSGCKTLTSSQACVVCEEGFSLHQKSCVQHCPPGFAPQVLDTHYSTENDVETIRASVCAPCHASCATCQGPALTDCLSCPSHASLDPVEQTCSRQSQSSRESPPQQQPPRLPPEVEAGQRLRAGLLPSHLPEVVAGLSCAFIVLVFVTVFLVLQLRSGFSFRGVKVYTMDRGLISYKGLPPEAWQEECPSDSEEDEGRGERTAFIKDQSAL
# T2 sequence (P05981 whole entry): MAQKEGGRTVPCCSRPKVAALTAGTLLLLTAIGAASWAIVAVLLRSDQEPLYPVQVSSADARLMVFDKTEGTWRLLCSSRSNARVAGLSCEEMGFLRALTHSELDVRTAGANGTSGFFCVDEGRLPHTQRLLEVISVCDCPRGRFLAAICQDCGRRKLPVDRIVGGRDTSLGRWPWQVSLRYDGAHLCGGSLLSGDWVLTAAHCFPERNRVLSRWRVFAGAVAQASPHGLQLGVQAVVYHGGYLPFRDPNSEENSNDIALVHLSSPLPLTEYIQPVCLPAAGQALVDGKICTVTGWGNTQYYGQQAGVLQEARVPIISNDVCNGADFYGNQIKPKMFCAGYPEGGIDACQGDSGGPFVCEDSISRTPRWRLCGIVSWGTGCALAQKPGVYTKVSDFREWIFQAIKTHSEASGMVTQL
# Chain of human TMPRSS2 (O15393 whole entry): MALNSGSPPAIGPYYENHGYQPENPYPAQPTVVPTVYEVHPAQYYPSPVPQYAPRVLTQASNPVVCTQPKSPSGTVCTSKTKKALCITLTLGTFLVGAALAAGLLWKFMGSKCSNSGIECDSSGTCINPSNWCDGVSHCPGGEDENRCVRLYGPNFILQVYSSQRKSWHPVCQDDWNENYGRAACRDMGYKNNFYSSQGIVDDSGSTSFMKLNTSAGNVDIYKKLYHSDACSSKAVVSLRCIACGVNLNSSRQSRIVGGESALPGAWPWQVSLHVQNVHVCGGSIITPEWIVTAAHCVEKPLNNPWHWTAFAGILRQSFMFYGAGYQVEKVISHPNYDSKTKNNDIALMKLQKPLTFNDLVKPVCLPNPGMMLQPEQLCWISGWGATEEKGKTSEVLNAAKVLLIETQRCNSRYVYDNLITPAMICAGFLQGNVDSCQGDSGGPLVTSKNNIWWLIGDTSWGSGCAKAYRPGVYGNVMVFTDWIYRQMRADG
compound,measurement,setting,value
N=C(N)NCCCCC(=O)N[C@@H](CCC(N)=O)C(=O)N[C@@H](Cc1ccccc1)C(=O)N[C@@H](CCCNC(=N)N)C(=O)c1nc2ccccc2s1 [Compound N-00130],Ki,[1],0.154 nM and 0.0954 nM and 0.153 nM
same,Ki,[2],0.221 nM and 0.323 nM and 0.606 nM
same,Ki,[3],7560 nM and > 10000 nM and 7140 nM
same,Ki,[4],16.4 nM and 37.9 nM and 30.4 nM
same,Ki,[5],> 10000 nM
same,Ki,[6],> 10000 nM
N=C(N)NCCCCC(=O)N[C@@H](CCC(=O)O)C(=O)N[C@@H](Cc1ccccc1)C(=O)N[C@@H](CCCNC(=N)N)C(=O)c1nc2ccccc2s1 [Compound N-00438],Ki,[1],1.21 nM and 1.02 nM and 1.09 nM
same,Ki,[2],0.477 nM and 0.603 nM and 0.489 nM
same,Ki,[3],> 10000 nM
same,Ki,[4],34.3 nM and 27.6 nM and 29.8 nM
same,Ki,[5],> 10000 nM
same,Ki,[6],> 10000 nM
"CS(=O)(=O)NC(CCC(N)=O)C(=O)NC(Cc1ccccc1)C(=O)NC(CCCNC(=N)N)C(O)c1nc2ccccc2s1 (stereo not drawn) [N-0385(OH), Ms-QFR-Kbt(OH)]",PFU/g,[7]; Females,15000000 PFU/g and 1441176 PFU/g and 8676471 PFU/g and 0 PFU/g and 2014706 PFU/g
same,PFU/mL,[7]; Females,3000000 PFU/mL and 288235 PFU/mL and 1735294 PFU/mL and 0 PFU/mL and 402941 PFU/mL
same,PFU/g,[7]; Males,0 PFU/g and 9852941 PFU/g and 720588 PFU/g
same,PFU/mL,[7]; Males,0 PFU/mL and 1970588 PFU/mL and 144118 PFU/mL
same,Brain lesions (H&E),"[8]; N-0385: surviving mice, day 14",reduced
same,Perivascular infiltrates in CNS score,"[8]; individual mice, most severely affected vessel",0 and 2 and 1
same,Alveolar cells score,[8]; [16],0 and 1 ((1) <10% affected) and 2 ((2) 10–25% affected)
same,Alveolar edema score,[8]; [16],0 and 1 ((1) <10% affected) and 2 ((2) 10–25% affected)
same,Alveolar fibrin score,[8]; [16],0 and 1 ((1) <10% affected) and 2 ((2) 10–25% affected)
same,Fibrosis score,[8]; [16],0
same,Interstitial infiltrates in lung score,[8]; [16],0 and 1 ((1) <10% affected) and 3 ((3) 26–50% affected)
same,Lymphoid hyperplasia score,[8]; [16],0
same,Perivascular infiltrate in lung score,[8]; [16],1 ((1) <10% affected) and 3 ((3) 26–50% affected) and 0
same,Type II pneumocyte hyperplasia score,[8]; [16],0 and 1 ((1) <10% affected) and 3 ((3) 26–50% affected)
same,reduction of viral titre (plaque assay),[9]; 40 nM,did not induce reduction
same,"plaque assay titre, Figure 2c",[9]; 40 nM,240000 and 1067000 and 627000 and 715000 and 1050000 and 440000 and 310000 (2×) and 190000 and 70000 and 400000 and 350000 and 264000 and 242000
same,reduction of viral titre (plaque assay),[9]; 200 nM,did not induce reduction
same,"plaque assay titre, Figure 2c",[9]; 200 nM,200000 and 150000 (2×) and 30000 and 500000 (4×) and 780000 and 594000 and 286000 and 190000 and 950000
same,reduction in TMPRSS2 activity,[10],no significant reduction
same,Brain No. Positive (IHC detections),[11],205622 and 308647 and 423604 and 84 and 143563 and 207074 and 97743 and 210 and 4043 and 310256
same,Brain No. Positive per mm^2,[11],4555.9 per mm^2 and 7896.3 per mm^2 and 7494 per mm^2 and 2.578 per mm^2 and 3909.6 per mm^2 and 5209.1 per mm^2 and 2144.6 per mm^2 and 10.67 per mm^2 and 137.97 per mm^2 and 6010.9 per mm^2
same,Brain Positive %,[11],45.15% and 78.61% and 74.5% and 0.0256% and 38.77% and 51.89% and 21.4% and 0.1052% and 1.361% and 59.5%
same,Lung No. Positive (IHC detections),[11],39230 and 61582 and 572 and 191 and 315 and 37366 and 98 and 384 and 178
same,Lung No. Positive per mm^2,[11],2703.8 per mm^2 and 1622.2 per mm^2 and 26.11 per mm^2 and 8.074 per mm^2 and 15.79 per mm^2 and 10.94 per mm^2 and 1638.9 per mm^2 and 3.505 per mm^2 and 17.97 per mm^2 and 6.38 per mm^2
same,Lung Positive %,[11],26.59% and 15.97% and 0.2589% and 0.0798% and 0.1558% and 0.1086% and 16.31% and 0.0348% and 0.1784% and 0.063%
same,average weight loss at 6 dpi,[12],12%
same,survival to the end-point (14 dpi),[12],10%
same,weight loss at the study end-point,[12],15%
same,inhibition of SARS-CoV-2 infection in dose-response,"[13]; Calu-3 cells, concentrations up to 1 μM",substantial inhibition was not observed
same,Nucleocapsid,"[13]; Figure 2a, two replicates, DMSO control about 91-94",67.4057 and 91.7182
same,dsRNA,"[13]; Figure 2a, two replicates, DMSO control about 93-95",60.8663 and 93.4144
same,EC50,"[13]; Severe acute respiratory syndrome coronavirus 2, Calu-3, read-out: SARS-CoV-2 VIDO Nucleocapsid EC50 ± SE",> 1000 nM
same,inhibition at 0.1 µM,"[13]; Severe acute respiratory syndrome coronavirus 2, Calu-3, read-out: inhibition of SARS-CoV-2 infection",< 23%
same,"Figure 2b dose-response, Mean",[13]; log [C] (nM) 0.20412,76.2535
same,"Figure 2b dose-response, Mean",[13]; log [C] (nM) 0.90309,92.6293
same,"Figure 2b dose-response, Mean",[13]; log [C] (nM) 1.60206,68.5403
same,"Figure 2b dose-response, Mean",[13]; log [C] (nM) 2.30103,90.4217
same,"Figure 2b dose-response, Mean",[13]; log [C] (nM) 3,72.2184
same,"Figure 2b dose-response, Mean",[13]; log [C] (nM) -0.49485,87.0011
same,"Figure 2b dose-response, Mean",[13]; log [C] (nM) -1.19382,84.82
same,inhibition at 0.1 µM,[14],< 20%
Triton X-100 [reference compound],% Viability of Vero E6 cells,[15],0.08115% and 6.372% and 5.985% and 2.918%

# From paper PMC9095466 (Nature, 2022)
